Test results reported in patent US20260001928A1 (CORTERIA PHARMACEUTICALS, priority 2022, published 2026).
*1 amine or outer side, *2 acyl side, *3 side chain or, on linkers, in order; H or OH if unused. Where a SMILES comes first, the peptide text is derived from it. Side-chain parts run from the residue outwards. [ ]: non-standard residue; d: D form. The star is where a group is joined. C18 diacid = O=C(O)CCCCCCCCCCCCCCCCC(=O)*; γGlu = O=C(O)[C@H](CCC(=O)[*:2])N[*:1]; NMeI = CC[C@H](C)[C@H](NC)C(=O)O; Pentanoyl = CCCCC(=O)*; AEEA = NCCOCCOCC(=O)O; Aib = CC(C)(N)C(=O)O

Molecular target: T1, CFR1R receptor (Homo sapiens, UniProt P34998)
T1 construct: host or cells: CHO-K1 (clone 2)
T1 sequence (P34998 24-415): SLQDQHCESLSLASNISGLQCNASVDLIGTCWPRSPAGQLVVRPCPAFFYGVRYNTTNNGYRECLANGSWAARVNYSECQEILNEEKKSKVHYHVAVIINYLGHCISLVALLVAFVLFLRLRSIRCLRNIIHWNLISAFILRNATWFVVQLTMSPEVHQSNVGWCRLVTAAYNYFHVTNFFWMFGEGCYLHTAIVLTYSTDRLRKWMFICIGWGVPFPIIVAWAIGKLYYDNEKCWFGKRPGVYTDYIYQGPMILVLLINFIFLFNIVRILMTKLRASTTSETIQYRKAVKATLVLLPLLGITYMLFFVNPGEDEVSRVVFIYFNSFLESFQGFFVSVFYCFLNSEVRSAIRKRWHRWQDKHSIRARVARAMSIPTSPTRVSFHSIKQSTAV
Experiment: Activity at anti-target CFR1R receptor, cAMP assay in CRF1R-overexpression CHO-K1 cells
Format: cell-based
Settings: 100% = Sauvagine at 100 nM
Description: Assessment of activity at anti-target CFR1R receptor is done using the same procedure as the one described for the TeloHEAC cell line. The CRF1R-overexpression CHO-K1 cell line clone 2 was purchased from PerkinElmer. Cells were grown in a 10 cm dish at 37° C./5% CO2 in medium (F12 (Hams)/10% FBS/400 μg/ml G418) to near confluence. At that stage, cells were harvested, resuspended to 10 million/mL in culture medium without G418 and with 10% DMSO. 1 mL vial aliquots were slowly frozen to −80° C. in isopropanol and then transferred in liquid nitrogen for storage. These vials were used to run the experiment following the procedure reported in the previous paragraph, except for the compound used in the control well to define the 100% activation (Sauvagine at 100 nM) and the cell density (final cell density: 4000 cells/well)

Row | Compound | Emax (% I) | also measured
1 | CC[C@H](C)[C@H](NC(C)=O)C(=O)N[C@H](C(=O)N[C@@H](CC(C)C)C(=O)N[C@@H](CO)C(=O)N[C@@H](CC(C)C)C(=O)N[C@@H](CC(=O)O)C(=O)N[C@@H](C(=O)N1CCC[C@H]1C(=O)N[C@H](C(=O)N[C@@H](CCCCN)C(=O)N[C@@H](CC(C)C)C(=O)N[C@@H](CCCCNC(=O)CC[C@H](NC(=O)CCCCCCCCCCCCCCCCC(=O)O)C(=O)O)C(=O)N[C@@H](CCCCN)C(=O)N[C@H](C(=O)N[C@@H](CC(C)C)C(=O)N[C@@H](CC(C)C)C(=O)N[C@@H](CCC(=O)O)C(=O)N[C@@H](CCC(N)=O)C(=O)N[C@@H](CCC(=O)O)C(=O)N[C@@H](CCCCN)C(=O)N[C@@H](CCC(N)=O)C(=O)N[C@@H](CCCCN)C(=O)N[C@@H](CCCCN)C(=O)N[C@@H](CCC(N)=O)C(=O)N[C@@H](CCCNC(=N)N)C(=O)N[C@@H](CCC(=O)O)C(=O)N[C@@H](CCC(N)=O)C(=O)N[C@@H](C)C(=O)N[C@@H](CCC(=O)O)C(=O)N[C@H](C(=O)N[C@@H](CC(N)=O)C(=O)N[C@@H](CCC(=O)O)C(=O)N[C@@H](CCC(N)=O)C(=O)N[C@H](C(=O)N[C@@H](CC(C)C)C(=O)N[C@@H](C)C(=O)N[C@@H](CCC(N)=O)C(=O)N[C@H](C(N)=O)C(C)C)[C@@H](C)CC)[C@@H](C)O)[C@@H](C)CC)[C@@H](C)CC)C(C)C)C(C)C [SEQ ID No. 130, reference compound] (Ac-IVLSLD[dV]PIKLK([γGlu-C18 diacid])KILLEQEKQKKQREQAETNEQILAQV-NH2) | – | Emax (% I) (listed as 13): 24 % I
2 | CC[C@H](C)[C@H](NC(C)=O)C(=O)N[C@H](C(=O)N[C@@H](CC(C)C)C(=O)N[C@@H](CO)C(=O)N[C@@H](CC(C)C)C(=O)N[C@@H](CC(=O)O)C(=O)N[C@H](C(=O)N1CCC[C@H]1C(=O)N[C@H](C(=O)N[C@@H](CCCCN)C(=O)N[C@@H](CC(C)C)C(=O)N[C@@H](CCCCNC(=O)COCCOCCNC(=O)COCCOCCNC(=O)CC[C@H](NC(=O)CC[C@H](NC(=O)CCCCCCCCCCCCCCCCC(=O)O)C(=O)O)C(=O)O)C(=O)N[C@@H](CCC(N)=O)C(=O)NC(C)(C)C(=O)N[C@@H](CC(C)C)C(=O)N[C@@H](CC(C)C)C(=O)N[C@@H](CCCCN)C(=O)N[C@@H](CCC(N)=O)C(=O)N[C@@H](CCC(=O)O)C(=O)N[C@@H](CCCNC(=N)N)C(=O)N[C@@H](CCC(N)=O)C(=O)N[C@@H](CCCCN)C(=O)N[C@@H](CCCCN)C(=O)N[C@@H](CCC(N)=O)C(=O)N[C@@H](CCCNC(=N)N)C(=O)N[C@@H](CCC(=O)O)C(=O)N[C@@H](CCC(N)=O)C(=O)N[C@@H](C)C(=O)N[C@@H](CCC(=O)O)C(=O)N[C@@H](CCCCN)C(=O)N[C@@H](CC(N)=O)C(=O)NC(C)(C)C(=O)N[C@@H](CCC(N)=O)C(=O)N[C@H](C(=O)N[C@@H](CC(C)C)C(=O)N[C@@H](CCC(=O)O)C(=O)N[C@@H](CCC(N)=O)C(=O)N[C@H](C(N)=O)C(C)C)[C@@H](C)CC)[C@@H](C)CC)C(C)C)C(C)C [compound 26] (Ac-IVLSLDVPIKLK([AEEA-AEEA-γGlu-γGlu-C18 diacid])Q[Aib]LLKQERQKKQREQAEKN[Aib]QILEQV-NH2) | 1 % I | –
3 | CC[C@H](C)[C@H](NC)C(=O)N[C@H](C(=O)N[C@@H](CC(C)C)C(=O)N[C@@H](CO)C(=O)N[C@@H](CC(C)C)C(=O)N[C@@H](CC(=O)O)C(=O)N[C@@H](C(=O)N1CCC[C@H]1C(=O)N[C@H](C(=O)N[C@@H](CCCCN)C(=O)N[C@@H](CC(C)C)C(=O)N[C@@H](CCCCNC(=O)CC[C@H](NC(=O)CCCCCCCCCCCCCCCCC(=O)O)C(=O)O)C(=O)N[C@@H](CCCCN)C(=O)N[C@H](C(=O)N[C@@H](CC(C)C)C(=O)N[C@@H](CC(C)C)C(=O)N[C@@H](CCC(=O)O)C(=O)N[C@@H](CCC(N)=O)C(=O)N[C@@H](CCC(=O)O)C(=O)N[C@@H](CCCCN)C(=O)N[C@@H](CCC(N)=O)C(=O)N[C@@H](CCCCN)C(=O)N[C@@H](CCCCN)C(=O)N[C@@H](CCC(N)=O)C(=O)N[C@@H](CCCNC(=N)N)C(=O)N[C@@H](CCC(=O)O)C(=O)N[C@@H](CCC(N)=O)C(=O)N[C@@H](C)C(=O)N[C@@H](CCC(=O)O)C(=O)N[C@H](C(=O)N[C@@H](CC(N)=O)C(=O)N[C@@H](CCC(=O)O)C(=O)N[C@@H](CCC(N)=O)C(=O)N[C@H](C(=O)N[C@@H](CC(C)C)C(=O)N[C@@H](C)C(=O)N[C@@H](CCC(N)=O)C(=O)N[C@H](C(N)=O)C(C)C)[C@@H](C)CC)[C@@H](C)O)[C@@H](C)CC)[C@@H](C)CC)C(C)C)C(C)C [SEQ ID No. 142, reference compound] (H-[NMeI]VLSLD[dV]PIKLK([γGlu-C18 diacid])KILLEQEKQKKQREQAETNEQILAQV-NH2) | – | Emax (% I) (listed as 14): 24 % I
4 | CCCCC(=O)N[C@H](C(=O)N[C@@H](CC(C)C)C(=O)N[C@@H](CO)C(=O)N[C@@H](CC(C)C)C(=O)N[C@@H](CC(=O)O)C(=O)N[C@@H](C(=O)N1CCC[C@H]1C(=O)N[C@H](C(=O)N[C@@H](CCCCN)C(=O)N[C@@H](CC(C)C)C(=O)N[C@@H](CCCCNC(=O)COCCOCCNC(=O)COCCOCCNC(=O)CC[C@H](NC(=O)CC[C@H](NC(=O)CCCCCCCCCCCCCCCCC(=O)O)C(=O)O)C(=O)O)C(=O)N[C@@H](CCC(N)=O)C(=O)N[C@H](C(=O)N[C@@H](CC(C)C)C(=O)N[C@@H](CC(C)C)C(=O)N[C@@H](CCCCN)C(=O)N[C@@H](CCC(N)=O)C(=O)N[C@@H](CCC(=O)O)C(=O)N[C@@H](CCCNC(=N)N)C(=O)N[C@@H](CCC(N)=O)C(=O)N[C@@H](CCCCN)C(=O)N[C@@H](CCCCN)C(=O)N[C@@H](CCC(N)=O)C(=O)N[C@@H](CCCNC(=N)N)C(=O)N[C@@H](CCC(=O)O)C(=O)N[C@@H](CCC(N)=O)C(=O)N[C@@H](C)C(=O)N[C@@H](CCC(=O)O)C(=O)N[C@@H](CCCCN)C(=O)N[C@@H](CC(N)=O)C(=O)NC(C)(C)C(=O)N[C@@H](CCC(N)=O)C(=O)N[C@H](C(=O)N[C@@H](CC(C)C)C(=O)N[C@@H](CCC(=O)O)C(=O)N[C@@H](CCC(N)=O)C(=O)N[C@H](C(N)=O)C(C)C)[C@@H](C)CC)[C@@H](C)CC)[C@@H](C)CC)C(C)C)C(C)C [compound 32] (Pentanoyl-VLSLD[dV]PIKLK([AEEA-AEEA-γGlu-γGlu-C18 diacid])QILLKQERQKKQREQAEKN[Aib]QILEQV-NH2) | 5 % I | –
5 | CC[C@H](C)[C@H](NC(C)=O)C(=O)N[C@H](C(=O)N[C@@H](CC(C)C)C(=O)N[C@@H](CO)C(=O)N[C@@H](CC(C)C)C(=O)N[C@@H](CC(=O)O)C(=O)N[C@@H](C(=O)N1CCC[C@H]1C(=O)N[C@H](C(=O)N[C@@H](CCCCN)C(=O)N[C@@H](CC(C)C)C(=O)N[C@@H](CCCCNC(=O)COCCOCCNC(=O)COCCOCCNC(=O)CC[C@H](NC(=O)CC[C@H](NC(=O)CCCCCCCCCCCCCCCCC(=O)O)C(=O)O)C(=O)O)C(=O)N[C@@H](CCC(N)=O)C(=O)N[C@H](C(=O)N[C@@H](CC(C)C)C(=O)N[C@@H](CC(C)C)C(=O)N[C@@H](CCCCN)C(=O)N[C@@H](CCC(N)=O)C(=O)N[C@@H](CCC(=O)O)C(=O)N[C@@H](CCCNC(=N)N)C(=O)N[C@@H](CCC(N)=O)C(=O)N[C@@H](CCCCN)C(=O)N[C@@H](CCCCN)C(=O)N[C@@H](CCC(N)=O)C(=O)N[C@@H](CCCNC(=N)N)C(=O)N[C@@H](CCC(=O)O)C(=O)N[C@@H](CCC(N)=O)C(=O)N[C@@H](C)C(=O)N[C@@H](CCC(=O)O)C(=O)N[C@@H](CCCCN)C(=O)N[C@@H](CC(N)=O)C(=O)NC(C)(C)C(=O)N[C@@H](CCC(N)=O)C(=O)N[C@H](C(=O)N[C@@H](CC(C)C)C(=O)N[C@@H](CCC(=O)O)C(=O)N[C@@H](CCC(N)=O)C(=O)N[C@H](C(N)=O)C(C)C)[C@@H](C)CC)[C@@H](C)CC)[C@@H](C)CC)C(C)C)C(C)C [compound 30] (Ac-IVLSLD[dV]PIKLK([AEEA-AEEA-γGlu-γGlu-C18 diacid])QILLKQERQKKQREQAEKN[Aib]QILEQV-NH2) | 15 % I | –
6 | CC[C@H](C)[C@H](NC)C(=O)N[C@H](C(=O)N[C@@H](CC(C)C)C(=O)N[C@@H](CO)C(=O)N[C@@H](CC(C)C)C(=O)N[C@@H](CC(=O)O)C(=O)N[C@@H](C(=O)N1CCC[C@H]1C(=O)N[C@H](C(=O)N[C@@H](CCCCN)C(=O)N[C@@H](CC(C)C)C(=O)N[C@@H](CCCCNC(=O)COCCOCCNC(=O)COCCOCCNC(=O)CC[C@H](NC(=O)CC[C@H](NC(=O)CCCCCCCCCCCCCCCCC(=O)O)C(=O)O)C(=O)O)C(=O)N[C@@H](CCC(N)=O)C(=O)NC(C)(C)C(=O)N[C@@H](CC(C)C)C(=O)N[C@@H](CC(C)C)C(=O)N[C@@H](CCCCN)C(=O)N[C@@H](CCC(N)=O)C(=O)N[C@@H](CCC(=O)O)C(=O)N[C@@H](CCCNC(=N)N)C(=O)N[C@@H](CCC(N)=O)C(=O)N[C@@H](CCCCN)C(=O)N[C@@H](CCCCN)C(=O)N[C@@H](CCC(N)=O)C(=O)N[C@@H](CCCNC(=N)N)C(=O)N[C@@H](CCC(=O)O)C(=O)N[C@@H](CCC(N)=O)C(=O)N[C@@H](C)C(=O)N[C@@H](CCC(=O)O)C(=O)N[C@@H](CCCCN)C(=O)N[C@@H](CC(N)=O)C(=O)N[C@H](C(=O)N[C@@H](CCC(N)=O)C(=O)N[C@H](C(=O)N[C@@H](CC(C)C)C(=O)N[C@@H](CCC(=O)O)C(=O)N[C@@H](CCC(N)=O)C(=O)N[C@H](C(N)=O)C(C)C)[C@@H](C)CC)C(C)C)[C@@H](C)CC)C(C)C)C(C)C [compound 28] (H-[NMeI]VLSLD[dV]PIKLK([AEEA-AEEA-γGlu-γGlu-C18 diacid])Q[Aib]LLKQERQKKQREQAEKNVQILEQV-NH2) | 6 % I | –
